The source of these data is US11547681B2, “N-acylethanolamide derivatives and uses thereof” (ELIEM THERAPEUTICS, INC., priority 2016, dated 2023).

The nature of this data set: in vitro. The conditions noted are these: for Measured concentration of PEA (analyte) / % Remaining of Initial: 1 μM; for % Remaining of Initial / microsomal CLint at 1 μM / half-life at 1 μM / microsomal CLint / half-life: microsomes. The method in brief:
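Half-life comes from a one-phase exponential decay fitted to percent of parent left relative to time 0. The compound (1 μM) was incubated at 37° C after cofactor addition and sampled up to 60 min, with LC-MS/MS quantitation of both the prodrug and the released PEA.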

[1] abbreviates: male, Sprague-Dawley, rat, 10 min.
Where [2] appears, read: male, Sprague-Dawley, rat, 20 min.

Take `CCCCCCCCCCCCCCCC(=O)NCCOC(=O)CCC(=O)OC(COC(=O)CCC)COC(=O)CCC` [Compound I-16]: the “Measured concentration of PEA (analyte)” value reads like this: (both, human, 0 min) 0 µM; (both, human, 10 min) 0.22 µM; (both, human, 20 min) 0.15 µM; (both, human, 30 min) 0.14 µM; (both, human, 60 min) 0.069 µM; (male, Sprague-Dawley, rat, 0 min) 0.025 µM. For the same compound, the “Measured concentration of PEA (analyte)” value reads like this: under setting [1], 0.033 µM; under setting [2], 0.015 µM; (male, Sprague-Dawley, rat, 30 min) 0 µM; (male, Sprague-Dawley, rat, 60 min) 0 µM. The “% Remaining of Initial” value is, setting by setting: (both, human, 0 h) 100%; (both, human, 10 min) 8.0%; (both, human, 20 min) 3.5%; (both, human, 0.5 h) 1.9%; (both, human, 1 h) less than 1.0%; (male, Sprague-Dawley, rat, 0 h) 100%. The “% Remaining of Initial” value reads like this: under setting [1], 9.7%; under setting [2], 4.2%; (male, Sprague-Dawley, rat, 0.5 h) 3.1%; (male, Sprague-Dawley, rat, 1 h) less than 1.0%. Also, the microsomal CLint (in general, the rate of metabolic loss divided by the concentration) at 1 μM by setting is: (both, human, CLint) more than 139 µL/min/mg; (both, human, CLint, calculated value in parentheses) 493 µL/min/mg; (male, Sprague-Dawley, rat, CLint) more than 139 µL/min/mg; (male, Sprague-Dawley, rat, CLint, calculated value in parentheses) 452 µL/min/mg. For the same compound, the half-life (commonly the time in which the quantity being followed falls by half) at 1 μM (both, human) was less than 10 min; the half-life at 1 μM (both, human, calculated value in parentheses) was 2.8 min; the half-life at 1 μM (male, Sprague-Dawley, rat) is less than 10 min; the half-life at 1 μM (male, Sprague-Dawley, rat, calculated value in parentheses) is 3.1 min.
On to `C[C@]12CC[C@H]3[C@@H](CCC4=CC(=O)CC[C@@]43C)[C@@H]1CC[C@@H]2O` [Testosterone, testosterone, reference compound], for which the “Clint, control compound” value (Example 4 control run) came to 0.0792 ml/min/mg protein. In addition, for the setting “Example 4 control run”, the “Half-life, control compound” value came to 17 min. Moreover, the microsomal CLint runs as follows: (both, human, CLint, Control Compound, Human liver microsomes) 66.7 µL/min/mg; (both, human, CLint, Control compound, Human liver microsomes) 50.5 µL/min/mg; (both, human, CLint, Human liver microsomes, control compound) 66.7 µL/min/mg; (both, human, CLint, control compound, human liver microsomes) 151 µL/min/mg; (male, Sprague-Dawley, CLint, Control Compound, Rat liver microsomes) 1010 µL/min/mg; (male, Sprague-Dawley, CLint, Control compound, Rat liver microsomes) 760 µL/min/mg. Besides, the microsomal CLint by setting is: (male, Sprague-Dawley, CLint, Rat liver microsomes, control compound) 1010 µL/min/mg; (male, Sprague-Dawley, CLint, control compound, rat liver microsomes) 911 µL/min/mg; (male, Sprague-Dawley, Clint, control compound, Example 4 control run) 1030 µL/min/mg. For the same compound, the half-life by setting is: (both, human, Control Compound, Human liver microsomes) 21 min; (both, human, Control compound, Human liver microsomes) 27 min; (male, Sprague-Dawley, Control Compound, Rat liver microsomes) 1.4 min; (male, Sprague-Dawley, Control compound, Rat liver microsomes) 1.8 min; (male, Sprague-Dawley, control compound, Example 4 control run) 1.4 min; (male, Sprague-Dawley, control compound, rat liver microsomes) 1.5 min. Moreover, the half-life at 1 μM runs as follows: (both, human, Human liver microsomes) 21 min; (male, Sprague-Dawley, Rat liver microsomes) 1.4 min.
